Experimental data taken from US7368453B2, “Quinazolinone compounds with reduced bioaccumulation” (Chiron Corporation, priority 2003, dated 2008).
Read-outs that look alike come from different tables or passages of the source.

Assay: Tissue half-life (t1/2) and Cmax in plasma, brain, kidney and liver after oral administration to CD-1 mice
Type: in vivo, mouse
Conditions: for half-life: male, mouse
[1] = kidney t1/2, 30 mg/kg oral gavage (PO), read-out: Half-Lives (h) Kidney (converted)
[2] = liver t1/2, 30 mg/kg oral gavage (PO), read-out: Half-Lives (h) Liver (converted)
[3] = plasma t1/2, 30 mg/kg oral gavage (PO), read-out: Half-Lives (h) Plasma (converted)
[4] = brain t1/2, 30 mg/kg oral gavage (PO), read-out: Half-Lives (h) Brain (converted)

Q: For COc1ccc(CCn2cnc3cc(N/C(=N/[C@H]4C[C@@H]5C[C@H]([C@@H]4C)C5(C)C)N4C[C@@H](C)N(C#N)[C@@H](C)C4)ccc3c2=O)c(F)c1 [Example 301, (3R,5S)-4-cyano-N-(3-{-[2-fluoro-4-(methyloxy)phenyl]ethyl}-4-oxo-3,4-dihydro-7-quinazolinyl]-3,5-dimethyl-N′-[(1R,2S,3S,5S)-2,6,6-trimethylbicyclo[3.1.1]hept-3-yl]-1-piperazinecarboximidamide], which half-life [1] is on record?
A: The half-life was 9.4 h.

Q: What about the half-life [2] of the same compound?
A: The half-life was 3.6 h.

Q: And the half-life [3]?
A: Its half-life is 2.5 h.

Q: Which results are given for COc1ccc(CCn2c(-c3cccnc3)nc3cc(NC(=N[C@H]4C[C@H]5C[C@@H]([C@@H]4C)C5(C)C)N4CCN[C@@H](CF)C4)ccc3c2=O)c(F)c1 [Example 248, (3R)-N-{3-[2-(2-fluoro-4-methoxyphenyl)ethyl]-4-oxo-2-pyridin-3-yl-3,4-dihydroquinazolin-7-yl}-3-(fluoromethyl)-N′-[(1S,2S,3S,5R)-2,6,6-trimethylbicyclo[3.1.1]hept-3-yl]piperazine-1-carboximidamide]?
A: half-life [4]: 14 h; half-life [1]: 11 h; half-life [2]: 6.2 h; half-life [3]: 5.3 h

Q: What does the source list for COc1ccc(CCn2c(-c3ccncc3)nc3cc(NC(=N[C@H]4C[C@H]5C[C@@H]([C@@H]4C)C5(C)C)N4CCN[C@@H](CF)C4)ccc3c2=O)c(F)c1 [Example 250]?
A: half-life [4]: 3 h; half-life [1]: 5.7 h; half-life [2]: 8.8 h; half-life [3]: 26 h

Q: For COc1ccc(CCn2c(-c3nccs3)nc3cc(NC(=N[C@H]4C[C@H]5C[C@@H]([C@@H]4C)C5(C)C)N4CCN[C@@H](CF)C4)ccc3c2=O)c(F)c1 [Example 254, (3R)-N-[3-[2-(2-fluoro-4-methoxyphenyl)ethyl]-4-oxo-2-(1,3-thiazol-2-yl)-3,4-dihydroquinazolin-7-yl]-3-(fluoromethyl)-N′-[(1 S,2S,3S,5R)-2,6,6-trimethylbicyclo[3.1.1]hept-3-yl]piperazine-1-carboximidamide], which half-life [4] is on record?
A: Its half-life is 11 h.

Q: What about the half-life [1] of the same compound?
A: Its half-life is 9.6 h.

Q: And the half-life [2]?
A: The half-life was 20 h.

Q: What about the half-life [3] of the same compound?
A: The half-life was 15 h.

Q: For C[C@@H]1[C@@H](N=C(Nc2ccc3c(=O)n(CCc4ccc(Br)cc4)c(-c4cccnc4)nc3c2)N2CCN[C@@H](C(F)F)C2)C[C@H]2C[C@@H]1C2(C)C [Example 227, (3R)-N-{3-[2-(4-bromophenyl)ethyl]-4-oxo-2-pyridin-3-yl-3,4-dihydroquinazolin-7-yl}-3-(difluoromethyl)-N′-[(1S,2S,3S,5R)-2,6,6-trimethylbicyclo[3.1.1]hept-3-yl]piperazine-1-carboximidamide], which half-life [2] is on record?
A: The half-life was 9.4 h.

Q: And the half-life [3]?
A: The half-life was 3.9 h.

Q: Which results are given for COc1ccc(CCn2c(C#N)nc3cc(NC(=NC4C[C@H]5C[C@@H]([C@@H]4C)C5(C)C)N4CCN[C@@H](CF)C4)ccc3c2=O)c(F)c1 (stereo partly drawn) [Example 256, (3R)-N-{2-cyano-3-[2-(2-fluoro-4-methoxyphenyl)ethyl]-4-oxo-3,4-dihydroquinazolin-7-yl}-3-(fluoromethyl)-N′-[(1S,2S,5R)-26,6-trimethylbicyclo[3.1.1]hept-3-yl]piperazine-1-carboximidamide]?
A: Half-Lives (h) Brain (brain t1/2, 30 mg/kg oral gavage (PO)): 15 h; Half-Lives (h) Liver (liver t1/2, 30 mg/kg oral gavage (PO)): 4.3 h; Half-Lives (h) Plasma (plasma t1/2, 30 mg/kg oral gavage (PO)): 5.4 h

Q: Which results are given for COc1ccc(CCn2c(-c3nnc[nH]3)nc3cc(NC(=N[C@H]4C[C@H]5C[C@@H]([C@@H]4C)C5(C)C)N4CCN[C@@H](CF)C4)ccc3c2=O)c(F)c1 [Example 252, (3R)-N-[3-[2-(2-fluoro-4-methoxyphenyl)ethyl]-4-oxo-2-(4H-1,2,4-triazol-3-yl)-3,4-dihydroquinazolin-7-yl]-3-(fluoromethyl)-N′-[(1S,2S,3S,5R)-2,6,6-trimethylbicyclo[3.1.1]hept-3-yl]piperazine-1-carboximidamide]?
A: half-life [1]: 8.4 h; half-life [2]: 16 h

Q: What does the source list for C[C@@H]1[C@@H](/N=C(/Nc2ccc3c(=O)n(CCc4ccc(Cl)cc4Cl)cnc3c2)N2CCNC(=O)C2)C[C@@H]2C[C@H]1C2(C)C [Example 260, N-{3-[2-(2,4-dichlorophenyl)ethyl]-4-oxo-3,4-dihydroquinazolin-7-yl]-3-oxo-N′-[(1R,2S,3S,5S)-2,6,6-trimethylbicyclo[3.1.1]hept-3-yl]piperazine-1-carboximidamide]?
A: half-life [1]: 7.3 h; half-life [3]: 7.2 h

Q: With COc1ccc(CCn2c(-c3cccnc3)nc3cc(NC(=N[C@H]4C[C@H]5C[C@@H]([C@@H]4C)C5(C)C)N4CCN(CC#N)[C@@H](C)C4)ccc3c2=O)c(F)c1 [Example 247, (3S)-4-(cyanomethyl)-N-{3-[2-(2-fluoro-4-methoxyphenyl)ethyl]-4-oxo-2-pyridin-3-yl-3,4-dihydroquinazolin-7-yl}-3-methyl-N′-[(1S,2S,3S,5R)-2,6,6-trimethylbicyclo[3.1.1]hept-3-yl]piperazine-1-carboximidamide] as the compound, how does the half-life [4] read?
A: The half-life was 12 h.

Q: And the half-life [1]?
A: The half-life was 11 h.

Q: And the half-life [2]?
A: The half-life was 8 h.

Q: What about the half-life [3] of the same compound?
A: The half-life was 18 h.
